From patent publication US5789434A, “Derivatives of substituted 4-biarylbutyric acid as matrix metalloprotease inhibitors” (priority 1995, dated 1998) come the findings set out here.

Structures are written as SMILES. A value given as a limit tells only on which side of the number the result lay.

Common to all, as to assay type: biochemical
For assay [1], the target named is T1, MMP-9 (Homo sapiens, UniProt P14780).
T1 construct: from tissue; host or cells: human polymorphonuclear leukocytes (PMN) from whole blood (New York Blood Center), PMA-stimulated supernatant
In words: Thiopeptilide MMP-9 Inhibition Assay. Conditions: pH 6.5; x (n) = average of n determinations; read-out: MMP-9: Thiopep. IC50.

Another assay addresses T2, MMP-3 (Homo sapiens, UniProt P08254).
T2 construct: Truncated Prostromelysin-257 was expressed in a soluble form in E.coli; made in house; host or cells: E. coli
In words: Automated MMP Profiling Assay, MMP-3 fluorogenic. Conditions: for IC50: 96-well automated, P218. From the text: This assay with each invention compound was run with the three enzymes MMP-3, MMP-9 and MMP-2 in parallel as adapted for a 96-well microtitre plate using a Hamilton A® workstation.

Assay [2] deals with T1, MMP-9. In words: Automated MMP Profiling Assay, MMP-9 fluorogenic. Conditions: for IC50: 96-well automated, P218.
Another assay has as its target T3, MMP-2 (Homo sapiens, UniProt P08253).
T3 sequence (P08253 110-660): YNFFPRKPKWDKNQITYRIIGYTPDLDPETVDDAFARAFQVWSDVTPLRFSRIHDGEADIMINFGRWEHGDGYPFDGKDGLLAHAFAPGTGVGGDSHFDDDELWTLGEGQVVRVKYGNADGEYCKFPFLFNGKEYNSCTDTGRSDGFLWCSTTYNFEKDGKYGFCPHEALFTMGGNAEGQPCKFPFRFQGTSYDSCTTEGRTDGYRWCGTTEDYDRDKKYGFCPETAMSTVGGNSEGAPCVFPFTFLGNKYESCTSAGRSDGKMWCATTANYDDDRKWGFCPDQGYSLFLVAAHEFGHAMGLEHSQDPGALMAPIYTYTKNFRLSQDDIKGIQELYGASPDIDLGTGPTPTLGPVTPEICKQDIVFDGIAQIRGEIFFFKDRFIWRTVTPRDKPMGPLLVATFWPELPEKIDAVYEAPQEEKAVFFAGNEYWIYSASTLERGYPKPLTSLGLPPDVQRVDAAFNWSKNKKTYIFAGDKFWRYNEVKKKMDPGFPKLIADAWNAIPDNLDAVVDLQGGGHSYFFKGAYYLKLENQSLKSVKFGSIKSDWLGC
In words: Automated MMP Profiling Assay, MMP-2 fluorogenic. Conditions: 96-well automated, P218; read-out: MMP-2 Fluorogenic IC50 (profiling).

T2 sequence (P08254 100-274 limits assumed): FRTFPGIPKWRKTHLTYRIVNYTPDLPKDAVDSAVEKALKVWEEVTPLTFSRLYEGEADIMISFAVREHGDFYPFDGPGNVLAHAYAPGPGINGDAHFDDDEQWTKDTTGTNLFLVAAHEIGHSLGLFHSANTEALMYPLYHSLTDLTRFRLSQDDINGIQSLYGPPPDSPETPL
T1 sequence (P14780 107-707 limits assumed): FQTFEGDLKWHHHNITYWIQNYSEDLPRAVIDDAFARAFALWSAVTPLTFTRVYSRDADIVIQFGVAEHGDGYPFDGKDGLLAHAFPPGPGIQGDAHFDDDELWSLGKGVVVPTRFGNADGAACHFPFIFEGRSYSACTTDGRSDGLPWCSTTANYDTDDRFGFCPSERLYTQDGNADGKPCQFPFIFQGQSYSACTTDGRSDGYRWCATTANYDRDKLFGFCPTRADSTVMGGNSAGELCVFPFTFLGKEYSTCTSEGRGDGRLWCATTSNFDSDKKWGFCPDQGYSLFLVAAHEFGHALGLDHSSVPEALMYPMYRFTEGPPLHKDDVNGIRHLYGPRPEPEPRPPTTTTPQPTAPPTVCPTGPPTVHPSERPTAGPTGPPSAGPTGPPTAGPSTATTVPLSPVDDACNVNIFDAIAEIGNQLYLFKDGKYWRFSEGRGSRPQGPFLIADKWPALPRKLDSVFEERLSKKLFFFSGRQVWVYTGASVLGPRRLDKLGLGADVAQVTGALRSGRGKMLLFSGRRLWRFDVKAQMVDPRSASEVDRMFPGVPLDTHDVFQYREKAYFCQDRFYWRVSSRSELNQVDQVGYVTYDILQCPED

Usually IC50 stands for the concentration that inhibits the measured activity by half. In the case of `O=C(O)[C@@H]1[C@@H](Sc2ccccc2)CC[C@H]1C(=O)c1ccc(-c2ccc(Cl)cc2)cc1` [Example 297, (1R,2S,5R)-trans-5-[4-(4-chlorophenyl)phenylcarbonyl]-trans-2-phenylthiocyclopentanecarboxylic acid], the IC50 at MMP-9 [1] was 640 nM; on MMP-3, 5750 nM; on MMP-9 [2], 2370 nM; at MMP-2 it was 2070 nM.
What is called inhibition is the change of the read-out against control, counted positive when it falls. As to `CC(C)(C)OC(=O)Nc1ccc(-c2ccc(C(=O)CC(CCc3ccccc3)C(=O)O)cc2)cc1` (stereo not drawn) [Example 138, [1,1'-Biphenyl]-4-butanoic acid, 4'-[[(1,1-dimethylethoxy)carbonyl]amino]-γ-oxo-α-(2-phenylethyl)-], the figures for the IC50 at MMP-3 and at MMP-2 were 905 nM and 665 nM, respectively. The inhibition at 5 µM on MMP-9 [2] amounted to 0%.
`O=C(NC[C@@H]1CC[C@H](C(=O)c2ccc(-c3ccc(Cl)cc3)cc2)[C@H]1C(=O)O)c1ccccc1` (relative stereo) [Example 370, Cyclopentanecarboxylic acid, 2-[(benzoylamino)methyl]-[(4'-chloro[1,1'-biphenyl]-4-yl)carbonyl]-, (1α,2β,5β)-]: the figures for the IC50 against MMP-3, at MMP-9 [2] and on MMP-2 were 24 nM, 26 nM and 8.7 nM, respectively.
`O=C(CC(CCCc1ccccc1)C(=O)O)c1ccc(-c2ccc(OCc3ccc(F)cc3)cc2)cc1` (stereo not drawn) [Example 107, [1,1'-Biphenyl]-4-butanoic acid, 4'-[(4-fluorophenyl)methoxy]-γ-oxo-α-(3-phenylpropyl)-]: the values for the IC50 against MMP-3 and on MMP-2 were 32 nM and 16 nM, respectively. The same compound gave an inhibition at 5 µM at MMP-9 [2] of 34%.
For `COCCOCOC[C@@H]1CC[C@H](C(=O)c2ccc(-c3ccc(Cl)cc3)cc2)[C@H]1C(=O)O` (relative stereo) [Example 371, Cyclopentanecarboxylic acid, 2-[(4'-chloro[1,1'-biphenyl]-4-yl)carbonyl]-5-[[(2-methoxyethoxy)methoxy]methyl]-, (1α,2β,5β)-], the IC50 against MMP-3 was determined as 10 nM; against MMP-9 [2], 26 nM; on MMP-2 it was 9.1 nM.
For `CCCSC[C@@H]1CC[C@H](C(=O)c2ccc(-c3ccc(Cl)cc3)cc2)[C@H]1C(=O)O` (relative stereo) [Example 374, Cyclopentanecarboxylic acid, 2-[(4'-chloro[1,1'-biphenyl]-4-yl)carbonyl]-5-[(propylthio)methyl]-, (1α,2β,5β)-], in that order: 54 nM, 271 nM and 34 nM.
Turning to `O=C(O)[C@@H]1[C@@H](C(=O)c2ccc(-c3ccc(Cl)cc3)cc2)[C@H]2C=C[C@@H]1C2` (relative stereo) [Example 177, Bicyclo[2.2.1]hept-5-ene-2-carboxylic acid, 3-[(4'-chloro[1,1'-biphenyl]-4-yl)carbonyl]-, (2-endo-,3-endo)-], the inhibition at 5 µM stood at 11% against MMP-3 and 30% against MMP-9 [2]. The IC50 at MMP-2 turned out to be 4330 nM.
Turning to `O=C(CC(CCN1C(=O)c2ccc(OCc3ccccc3)cc2C1=O)C(=O)O)c1ccc(-c2ccc(Cl)cc2)cc1` (stereo not drawn) [Example 405, 2H-Isoindole-2-butanoic acid, α-[2-(4'-chloro[1,1'-biphenyl]-4-yl)-2-oxoethyl]-1,3-dihydro-1,3-dioxo-5-(phenylmethoxy)-], the IC50 against MMP-3 is 75 nM; against MMP-9 [2] it was 5.8 nM; on MMP-2, 80 nM.
For `O=C(CC(CN1C(=O)c2ccccc2C1=O)C(=O)O)c1ccc(-c2ccc(Cl)cc2)cc1` (stereo not drawn) [Example 276, 2H-Isoindole-2-propanoic acid, α-[2-(4'-chloro[1,1'-biphenyl]-4-yl)-2-oxoethyl]-1,3-dihydro-1,3-dioxo-], in that order: 262 nM, 275 nM and 39 nM.
For `O=C(O)[C@@H]1CN(Cc2ccccc2)C[C@H]1C(=O)c1ccc(-c2ccc(Cl)cc2)cc1` (relative stereo) [Example 175, 3-Pyrrolidinecarboxylic acid, 4-[(4'-chloro[1,1'-biphenyl]-4-yl)carbonyl]-1-(phenylmethyl)-, trans-], the inhibition at 5 µM against MMP-3 was 28%; against MMP-9 [2], 6%. Besides, the concentration for half-maximal inhibition (IC50) on MMP-2 turned out to be 5000 nM.
On to `CC(C)CCOc1ccc(-c2ccc(C(=O)CC(CCCc3ccccc3)C(=O)O)cc2)cc1` (stereo not drawn) [Example 96, [1,1'-Biphenyl]-4-butanoic acid, 4'-(3-methylbutoxy)-γ-oxo-α-(3-phenylpropyl)-], for which the IC50 against MMP-3 was 232 nM; at MMP-9 [2] it was > 1250 nM; at MMP-2, 72 nM.
For `O=C(CC(CCc1cccc(I)c1)C(=O)O)c1ccc(-c2ccc(Cl)cc2)cc1` (stereo not drawn) [Example 127, [1,1'-Biphenyl]-4-butanoic acid, 4'-chloro-α[2-(3-iodophenyl)ethyl]-γ-oxo-], in that order: 605 nM, 1220 nM and 40 nM.
As to `O=C(CC(CCCc1ccccc1)C(=O)O)c1ccc(-c2ccc(/C=C\c3ccccc3)cc2)cc1` (stereo not drawn) [Example 358, [1,1'-Biphenyl]-4-butanoic acid, 4'-γ-oxo-4'-(2-phenylethenyl)-α-(3-phenylpropyl)-, (Z)-], the inhibition at 5 µM against MMP-3 stood at 39%; on MMP-9 [2], 4%. In addition, on MMP-2, the IC50 is 124 nM.
Regarding `CCN(CC)C(=O)c1cccc(CC[C@H](CC(=O)c2ccc(-c3ccc(Cl)cc3)cc2)C(=O)O)c1` [Example 146], the IC50 against MMP-3 was found to be 2400 nM; on MMP-9 [2], 2710 nM; on MMP-2, 538 nM.
Turning to `O=C(CC(CCCc1ccccc1)C(=O)O)c1ccc(-c2ccc(OCc3cccc(Cl)c3)cc2)cc1` (stereo not drawn) [Example 106, [1,1'-Biphenyl]-4-butanoic acid, 4'-[(3-chlorophenyl)methoxy]-γ-oxo-α-(3-phenylpropyl)-], the figures for the IC50 against MMP-3, against MMP-9 [2] and at MMP-2 were 57 nM, 622 nM and 43 nM, respectively.
Take `CN(C)C(=O)c1ccccc1SCC(CC(=O)c1ccc(-c2ccc(Cl)cc2)cc1)C(=O)O` (stereo not drawn) [Example 436, [1,1'-Biphenyl]-4-butanoic acid, 4'-chloro-α-[[[2-[(dimethylamino)carbony]phenyl]thio]methyl]-γ-oxo-]: the IC50 against MMP-3 turned out to be 158 nM; against MMP-9 [2], 519 nM; at MMP-2 it was 286 nM.
For `O=C(CC(CCc1ccccc1)C(=O)O)c1ccc(-c2ccc(OCc3ccccc3)cc2)cc1` (stereo not drawn) [Example 161, [1,1'-Biphenyl]-4-butanoic acid, γ-oxo-α-(2-phenylethyl)-4'-(phenylmethoxy)-], in that order: 46 nM, 1560 nM and 38 nM.
For `C=CCOc1ccc(-c2ccc(C(=O)CC(CCCc3ccccc3)C(=O)O)cc2)cc1` (stereo not drawn) [Example 95, [1,1'-Biphenyl]-4-butanoic acid, γ-oxo-α-(3-phenylpropyl)-4'-(2-propenyloxy)-], in that order: 79 nM, 77 nM and 26 nM.
For `O=C(CC(CCN1C(=O)c2ccncc2C1=O)C(=O)O)c1ccc(-c2ccc(Cl)cc2)cc1` (stereo not drawn) [Example 417, 2H-Pyrrolo[3,4-c]pyridine-2-butanoic acid, α-[2-(4'-chloro[1,1'-biphenyl]-4-yl)-2-oxoethyl]-1,3-dihydro-1,3-dioxo-], in that order: 32 nM, 12 nM and 3.7 nM.
Turning to `O=C(CC(CCN1C(=O)c2ccccc2C1=O)C(=O)O)c1ccc(-c2ccc(Br)cc2)cc1` (stereo not shown) [Example 270], the IC50 against MMP-3 amounted to 6 nM; at MMP-9 [2] it was 1.6 nM; on MMP-2 it was 1.4 nM.
For `CCCCCOc1ccc(-c2ccc(C(=O)[C@H]3CC[C@@H](Sc4ccccc4)[C@@H]3C(=O)O)cc2)cc1` (single isomer, unassigned) [Example 319, Cyclopentanecarboxylic acid, 2-[[4'-(pentyloxy)[1,1'-biphenyl]-4-yl]carbonyl]-5-(phenylthio)-, (1α,2β,5β)-(+)-], in that order: 30 nM, 197 nM and 4.1 nM.
As for `CC(=O)OC[C@@H]1C[C@@H](C(=O)c2ccc(-c3ccc(Cl)cc3)cc2)[C@H]1C(=O)O` (relative stereo) [Example 397, Cyclobutanecarboxylic acid, 2-[(acetyloxy)methyl]-4-[(4'-chloro[1,1'-biphenyl]-4-yl)carbonyl]-, (1α,2β,4α)-], the IC50 against MMP-3 stood at 3200 nM; on MMP-2 it was 750 nM. On MMP-9 [2], this compound gave an inhibition at 5 µM of 40%.
